Changes are numbered by the printed parent chain.
Key:
[1] = molecular target: T1, ROS-GC1 (rod outer segment guanylate cyclase type 1), full-length recombinant (Bos taurus, UniProt P55203, A1013R/D890A); assay: biochemical
T1 construct: gene GUCY2D
T1 sequence (P55203 57-1110 D890A/A1013R): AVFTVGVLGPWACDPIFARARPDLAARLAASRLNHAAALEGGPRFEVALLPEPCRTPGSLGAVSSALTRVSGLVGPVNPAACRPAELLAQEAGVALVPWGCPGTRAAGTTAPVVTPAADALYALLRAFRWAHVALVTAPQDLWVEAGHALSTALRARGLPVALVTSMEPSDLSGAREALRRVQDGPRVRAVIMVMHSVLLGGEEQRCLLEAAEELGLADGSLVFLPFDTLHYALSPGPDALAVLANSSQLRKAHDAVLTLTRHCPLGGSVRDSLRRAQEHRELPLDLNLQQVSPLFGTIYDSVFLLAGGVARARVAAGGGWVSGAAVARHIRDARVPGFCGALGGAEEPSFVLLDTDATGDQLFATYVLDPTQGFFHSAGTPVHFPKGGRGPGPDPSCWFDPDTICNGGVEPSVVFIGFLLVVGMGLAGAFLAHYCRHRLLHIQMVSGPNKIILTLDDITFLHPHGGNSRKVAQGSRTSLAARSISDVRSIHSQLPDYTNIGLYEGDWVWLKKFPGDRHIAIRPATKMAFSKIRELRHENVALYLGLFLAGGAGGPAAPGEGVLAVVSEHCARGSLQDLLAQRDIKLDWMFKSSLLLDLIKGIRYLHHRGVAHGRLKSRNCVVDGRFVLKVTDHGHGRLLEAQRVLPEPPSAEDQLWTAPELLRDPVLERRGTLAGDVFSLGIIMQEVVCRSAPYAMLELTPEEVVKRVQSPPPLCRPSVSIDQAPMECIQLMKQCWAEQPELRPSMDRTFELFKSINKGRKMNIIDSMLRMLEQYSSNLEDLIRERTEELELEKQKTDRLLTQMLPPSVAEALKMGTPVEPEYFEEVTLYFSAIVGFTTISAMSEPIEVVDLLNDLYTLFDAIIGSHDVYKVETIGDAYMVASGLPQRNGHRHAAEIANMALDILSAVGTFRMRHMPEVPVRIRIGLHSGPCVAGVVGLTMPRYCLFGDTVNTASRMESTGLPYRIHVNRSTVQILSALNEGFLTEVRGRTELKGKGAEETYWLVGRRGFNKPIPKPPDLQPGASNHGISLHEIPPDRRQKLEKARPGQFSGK

[2] = molecular target: T2, ROS-GC1 (rod outer segment guanylate cyclase type 1), full-length recombinant (Bos taurus, UniProt P55203, A1013R); assay: biochemical
T2 construct: gene GUCY2D
T2 sequence (P55203 57-1110 A1013R): T1 sequence (P55203 57-1110 D890A/A1013R) with A834D

EC50 [1]: ~30 mM
EC50 [2]: 25 mM
SMILES: O=C(O)O [bicarbonate]

From PMC5461267, “Membrane Guanylate Cyclase catalytic Subdomain: Structure and Linkage with Calcium Sensors and Bicarbonate” (Frontiers in Molecular Neuroscience, 2017)
